For orientation: IC50 means the concentration needed to halve the response being measured.

SMILES strings stand for the structures. ≈ marks a conversion by molar mass, not a printed value.

This experiment relates to Endothelial cells from human umbilical vein (HUVEC). The experiment is described as follows: Test effect on endothelial cell growth (HUVEC proliferation, MTT method). The conditions noted are these: 120 h, 5 days incubation at 37° C., graphically determined, read-out: IC50 (50% inhibition doses of the test compound to endothelial cell growth). It is filed as cell-based. As for the experimental part:
Test effect of the object compound (I) on endothelial cell growth
Endothelial cells from human umbilical vein (HUVEC) were used for this experiment.
HUVEC (2×10^3 cells per well) were plated on 96 wells microtiter plates previously coated with human fibronectin and incubated with MCDB 151 [GIBCO] medium supplemented with 15% FBS (fetal bovine serum), […] ECGS (Endothelial cell growth supplement), 10 μg/ml heparin in the presence of the test compound at 37° C. under 5% CO2 in the air for 5 days. At the end of the experiments, the growth rate of HUVEC was measured according to the MTT method [Cancer treatment Reports 71, 1141~1149 (1987)].
IC50 values [50% inhibition doses of the test compound to endothelial cell growth) of the test compound were graphically determined and are shown in the following table.
A general note: Tetrazolium assays rely on reduction of a dye to a coloured formazan, in cell work by metabolically active cells.

Consider `CNC(=O)OC1CCC2(CO2)C(C2(C)OC2CC=C(C)C)C1OC` (centres unmarked), for which the IC50 is 0.21 ng/mL (≈ 0.619 nM).

For the molecule `COC1C(OC(=O)N2CCOCC2)CCC2(CO2)C1C1(C)OC1CC=C(C)C` (centres unmarked), the IC50 came to 0.62 ng/mL (≈ 1.57 nM).

Source of the values: US5789405A, “Oxaspiro(2,5)octane derivative” (Fujisawa Pharmaceutical Co., Ltd., priority 1988, dated 1998).
